{"source": "patent US20200223889A1", "about": "“Bicyclic Compounds Capable of Binding to Melanocortin 4 Receptor” (Novo Nordisk A/S, priority 2017, published 2020)", "key": {"human MC4R": {"biological_target": "T1, human MC4R (Homo sapiens, UniProt P32245)", "T1 construct": "expressed in transfected cells", "T1 sequence (P32245 whole entry)": "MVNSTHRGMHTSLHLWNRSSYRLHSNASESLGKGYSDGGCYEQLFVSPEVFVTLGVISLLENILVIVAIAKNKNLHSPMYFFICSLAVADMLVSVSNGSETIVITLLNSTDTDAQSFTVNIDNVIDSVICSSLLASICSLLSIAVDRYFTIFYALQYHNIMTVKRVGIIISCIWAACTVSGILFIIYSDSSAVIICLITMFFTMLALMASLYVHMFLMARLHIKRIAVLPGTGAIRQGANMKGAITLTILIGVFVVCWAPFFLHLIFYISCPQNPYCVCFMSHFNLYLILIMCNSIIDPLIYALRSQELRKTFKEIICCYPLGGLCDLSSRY", "experiment": "Functional cAMP assay (CisBio HTRF) in BHK cells expressing human MC4R", "assay_type": "cell-based", "in_short": "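Stably transfected BHK cells expressing human MC1R or MC4R; cAMP quantified by HTRF (cAMP-d2/cryptate) after 30 min compound stimulation at 25 °C in DMEM-based buffer with 1 mM IBMX. Compounds were prepared as 10-fold serial dilutions starting at 2 μM (working solution, 2× final). Readout after 1 h at 25 °C; non-linear regression.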"}, "[1]": {"experiment": "In vivo acute food intake model (BioDAQ) in C57BL/6J male mice", "settings": "single subcutaneous dose 1 mg/kg, cumulative food intake", "protocol": "The MC4R system is central to appetite regulation and agonists are known inhibit food intake. In order to screen compounds in a relevant in vivo model, efficacy was assessed by determining the effect of the compound on reducing food intake acutely in mice.\nAll animal protocols were approved by an Institutional Animal Care and Use Committee and Ethical Review Committee of Novo Nordisk. Animals were housed according to Novo Nordisk rodent housing standards, and were given ad libitum access to food and water under controlled lighting (12 h:12 h light/dark cycle; lights off 11:00-23:00), temperature (23±2° C.) and relative humidity (50±20%) conditions. For each acute food intake study C57BL/6J male mice (25-30 grams body weight) were acclimated for two weeks to the appropriate light cycle and to single-housing (one mouse per cage) in cages linked to a BioDAQ automated food intake system (Research Diets Inc., New Brunswick, N.J. USA). The animals were also acclimated to new food (Research Diets 12450B, 10% kcal fat) during this time.\nThe BioDAQ is a computer automated scientific instrument for Biological Data Acquisition of food intake in rodents and measures food intake from each cage every 15 minutes. A total of 32 animals can be accommodated in the system per study, therefore, animals were randomized into 4 groups of n=8 for each study. […] Animals were fasted ˜4 hr prior to dosing. Vehicle (10 mM phosphate; 140 mM sodium chloride) or compound was dosed at a volume of 10 ml per kg subcutaneously approximately 20 minutes prior to the start of the dark cycle (compound chem no. and dosages are indicated in table 2 below). After dosing, food intake was recorded for approximately 24 hours.\nThe inhibitory effect of compounds on food intake was generally well-correlated with in vitro binding affinity on the human MC4 receptor and with plasma stability of the compound. Most studies were conducted as dose response studies with vehicle and the compound at 3 doses (0.3, 1 and 3 mg/kg). Some studies were done for the purpose of dose-range finding, while others were done to comparatively assess the effect of 3 compounds at the same dose. Maximal effects on food intake occurred within the first 1-5 hours post-dose. The comparative effect of compounds across studies on food intake was assessed by normalizing measurements as % effect on cumulative food intake after a single subcutaneous dose, relative to vehicle. Results are reported in Table 2 as % effect on food intake at 3 hours post dose."}}, "note": "Positions of bridges follow the written chain, without caps; N, C: chain ends. Non-standard residues stand in square brackets, D forms with d. Residues, ends and D or L forms follow the SMILES beside them. Thz = O=C(O)[C@@H]1CSCN1"}
{"smiles": "C[C@@H]1NC(=O)[C@H](CCCCN)NC(=O)[C@@H]2CSSC[C@H](NC(=O)[C@H](Cc3c[nH]c4ccccc34)NC(=O)[C@H](C)NC(=O)[C@@H](CCCCN)NC1=O)C(=O)N1CSC[C@H]1C(=O)N[C@@H](Cc1c[nH]cn1)C(=O)N[C@H](Cc1ccccc1)C(=O)N[C@@H](Cc1c[nH]cn1)C(=O)N[C@@H](Cc1c[nH]c3ccccc13)C(=O)N2", "note": "[Chem. 114, c[c[Cys-THAZ-His-D-Phe-His-Trp- Cys]-Lys-Ala-D-Lys-Ala-Trp]] (cyclo(AWC[Thz]H[dF]HWCKA[dK]); disulfide 3-9)", "values": [{"measurement": "EC50", "setting": "human MC4R; BHK cells expressing human MC4R, '>' = highest dose used with no response, read-out: MC4R cAMP EC50", "value": 0.04, "unit": "nM"}, {"measurement": "MC1R/MC4R cAMP EC50 ratio", "setting": "human MC4R; MC1R cAMP EC50 divided by MC4R cAMP EC50", "value": 2844}, {"measurement": "% Effect on food intake at 3 hours post dose, relative to vehicle", "setting": "[1]", "value": "−64 ± 6", "unit": "%"}]}
